# Activity calls are given as the source filed them.
# Assays:
# [1] = biological target: Sphingosine 1-phosphate receptor 4 (Homo sapiens, UniProt O95977); experiment: Fluorescence dose response cell-based high throughput screening assay for antagonists of the Sphingosine 1-Phosphate Receptor 4 (S1P4). [Related pubchem assays: 1524 (Confirmation in triplicates.), 1510 (Primary screen.)]; format: functional
# [2] = biological target: Sphingosine 1-phosphate receptor 1 (Homo sapiens, UniProt P21453); format: functional;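 also: Tango beta-arrestin reporter U2OS cells stimulated with S1P near its EC80; inhibitor potency meaning antagonism of receptor activation by the natural agonist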
# Estrogen receptor beta [3] = biological target: T1, Estrogen receptor beta (Homo sapiens, UniProt Q92731); experiment: ERβ–SRC-3 coactivator interaction inhibitors, confirmation, orthogonal assay, biochemical, ELISA, streptavidin-HRP readout (AID 1060)
# Estrogen receptor beta [4] = biological target: T1, Estrogen receptor beta
# [5] = biological target: T2, Heat shock 70 kDa protein 1A (Homo sapiens, UniProt P0DMV8); experiment: Hsp70 inhibitors, probe displacement, primary screen, biochemical, fluorescence polarization (AID 583)
# [6] = biological target: T2, Heat shock 70 kDa protein 1A; experiment: Hsp70 inhibitors, biochemical, TR-FRET (AID 786)
# [7] = Luminescence Cell-Based Dose Retest to Confirm Inhibitors of Cancer Stem Cells. [Related pubchem assays (depositor defined):AID2717, AID2721]; format: functional; settings: Homo sapiens
# Estrogen receptor [8] = biological target: T3, Estrogen receptor (Homo sapiens, UniProt P03372);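 also: potency for inhibiting coactivator peptide recruitment to the receptor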
# T3 sequence (P03372 whole entry): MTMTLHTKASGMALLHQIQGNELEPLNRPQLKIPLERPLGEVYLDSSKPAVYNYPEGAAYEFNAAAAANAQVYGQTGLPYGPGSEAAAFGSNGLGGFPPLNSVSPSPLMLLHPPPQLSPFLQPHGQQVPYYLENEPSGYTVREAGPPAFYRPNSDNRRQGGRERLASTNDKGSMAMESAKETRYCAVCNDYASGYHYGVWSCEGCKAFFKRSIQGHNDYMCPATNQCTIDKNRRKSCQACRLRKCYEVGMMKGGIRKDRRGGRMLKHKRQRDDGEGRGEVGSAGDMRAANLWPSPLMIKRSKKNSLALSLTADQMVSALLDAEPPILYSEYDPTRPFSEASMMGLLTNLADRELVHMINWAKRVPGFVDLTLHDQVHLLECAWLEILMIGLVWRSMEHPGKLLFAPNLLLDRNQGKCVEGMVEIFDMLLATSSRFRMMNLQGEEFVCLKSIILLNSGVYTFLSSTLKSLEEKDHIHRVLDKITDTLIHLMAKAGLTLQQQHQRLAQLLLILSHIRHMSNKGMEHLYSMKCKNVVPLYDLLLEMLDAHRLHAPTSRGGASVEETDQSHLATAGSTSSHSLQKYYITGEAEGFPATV
# [9] = inhibitors of Vif binding to APOBEC3G peptide, primary screen, biochemical, TR-FRET, GST-Vif 1-94, biotin-A3G peptide, dose response retest (AID 1117319); format: functional;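 also: TR-FRET signal of purified GST-Vif binding a biotinylated A3G peptide; inhibitors lower the FRET signal by blocking Vif and A3G binding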
# Cytochrome P450 3A4 = Cytochrome P450 3A4 (Homo sapiens, UniProt P08684);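 also: CYP3A4 tested as one member of a cytochrome P450 panel screen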
# CHO-K1 = experiment: (§1) Counterscreen for antagonists of the orexin 1 receptor (OX1R; HCRTR1): Homogeneous time resolved fluorescence (HTRF)-based cell-based dose response assay to identify antagonists of the parental CHO-K1 cell line. [Related pubchem assays (depositor defined):AID434989, AID435008, AID463079, AID485270, AID492963, AID492964, AID492965, AID493232, AID504699, AID504701]; format: functional; settings: Cricetulus griseus
# [10] = Luminescence Cell-Based Dose Confirmation HTS to Identify Activators of 5'UTR Stem-Loop Driven Alpha-Synuclein mRNA Translation in H4 Neuroglioblastoma Cells. [Related pubchem assays: 1829 (Project Summary), 1814 (Primary HTS)]; format: functional
# H4 = experiment: Luminescence Cell-Based Dose Response HTS to Identify Activators of 5'UTR Stem-Loop Driven Prion Protein mRNA Translation in H4 Neuroglioblastoma Cells. [Related pubchem assays: 1829 (Project Summary), 1814 (Primary HTS)]; format: functional; settings: Homo sapiens
# [11] = biological target: Peroxisome proliferator-activated receptor gamma/Nuclear receptor coactivator 1 (Homo sapiens, UniProt P37231); format: functional;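 also: agonist potency as compounds enhance coactivator SRC-1 recruitment to PPARgamma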
# Cytochrome P450 2C19 = Cytochrome P450 2C19 (Homo sapiens, UniProt P33261); experiment: Cytochrome panel assay with activity outcomes. Panel member name: p450-cyp2c19 Compounds with AC50 equal or less than 10 uM are considered active; format: functional; settings: read-out: AC50
# Orexin receptor type 2 [12] = biological target: T4, Orexin receptor type 2 (Homo sapiens, UniProt O43614); experiment: Counterscreen assay for antagonists of the orexin 1 receptor (OX1R; HCRTR1): Fluorescence-based cell-based dose response assay for antagonists of the orexin 2 receptor (OX2R; HCRTR2), run by assay provider.; format: functional
# T4 sequence (O43614 whole entry): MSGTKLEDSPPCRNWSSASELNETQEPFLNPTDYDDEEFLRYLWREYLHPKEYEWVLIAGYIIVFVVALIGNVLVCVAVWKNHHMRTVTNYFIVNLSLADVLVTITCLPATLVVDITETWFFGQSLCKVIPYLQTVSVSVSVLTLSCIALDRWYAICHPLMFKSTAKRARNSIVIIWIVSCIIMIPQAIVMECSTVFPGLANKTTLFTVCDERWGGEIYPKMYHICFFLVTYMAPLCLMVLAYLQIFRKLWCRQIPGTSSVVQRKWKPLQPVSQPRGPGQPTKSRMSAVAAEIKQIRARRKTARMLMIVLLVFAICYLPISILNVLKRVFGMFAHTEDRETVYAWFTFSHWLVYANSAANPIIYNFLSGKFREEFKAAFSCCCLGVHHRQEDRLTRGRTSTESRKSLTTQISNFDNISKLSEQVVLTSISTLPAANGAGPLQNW
# [13] = Luminescence Cell-Based Dose Response HTS to Identify Activators of Luciferase Translation or Activity in H4 […] Cells. [Related pubchem assays: 1829 (Project Summary), 1814 (Primary HTS)]; format: functional
# [14] = biological target: Peroxisome proliferator-activated receptor gamma/Nuclear receptor coactivator 3 (Homo sapiens, UniProt P37231); format: functional;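 also: agonist potency for raising coactivator recruitment to the receptor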
# Orexin receptor type 2 [15] = biological target: T4, Orexin receptor type 2; experiment: Counterscreen assay for antagonists of the orexin 1 receptor (OX1R; HCRTR1): Homogeneous Time Resolved Fluorescence (HTRF)-based cell-based dose response assay for antagonists of the orexin 2 receptor (OX2R; HCRTR2), run by assay provider.; format: functional
# [16] = as §1, with “Fluorescence-based” for “Homogeneous time resolved fluorescence (HTRF)-based”, “cell-based high throughput” for “cell-based”, “CHO” for “CHO-K1”; format: functional
# [17] = biological target: T5, Orexin/Hypocretin receptor type 1 (Homo sapiens, UniProt O43613); experiment: Homogeneous Time Resolved Fluorescence (HTRF)-based cell-based high throughput dose response assay for antagonists of the orexin 1 receptor (OX1R; HCRTR1). [Related pubchem assays (depositor defined):AID434989, AID435008, AID463079, AID485270, AID492963, AID492964, AID492965, AID493232, AID504717, AID504718]; format: functional
# T5 sequence (O43613 whole entry): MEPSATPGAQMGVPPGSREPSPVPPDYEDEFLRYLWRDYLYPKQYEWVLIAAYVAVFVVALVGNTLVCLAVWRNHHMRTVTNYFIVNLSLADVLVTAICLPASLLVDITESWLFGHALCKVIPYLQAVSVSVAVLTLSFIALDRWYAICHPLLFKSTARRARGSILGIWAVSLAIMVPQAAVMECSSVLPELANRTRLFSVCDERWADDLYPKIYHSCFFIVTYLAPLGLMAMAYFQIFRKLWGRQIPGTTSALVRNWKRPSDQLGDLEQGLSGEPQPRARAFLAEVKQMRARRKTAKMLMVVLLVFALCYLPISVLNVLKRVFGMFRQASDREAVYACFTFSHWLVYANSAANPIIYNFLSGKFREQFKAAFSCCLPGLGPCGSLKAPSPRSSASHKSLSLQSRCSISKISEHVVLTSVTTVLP
# [18] = biological target: Protein-tyrosine kinase 2-beta (Homo sapiens, UniProt Q14289);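 also: potency of inhibitors of PYK2 kinase phosphorylation of poly-GT substrate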
# [19] = biological target: T5, Orexin/Hypocretin receptor type 1; experiment: Fluorescence-based cell-based high throughput dose response assay for antagonists of the orexin 1 receptor (OX1R; HCRTR1). [Related pubchem assays (depositor defined):AID434989, AID435008, AID463079, AID485270, AID492963, AID492964, AID492965, AID493232, AID504717, AID504718]; format: functional
# Cytochrome P450 2C9 = Cytochrome P450 2C9 (Homo sapiens, UniProt P11712)
# [20] = biological target: Peroxisome proliferator-activated receptor gamma/Nuclear receptor coactivator 2 (Homo sapiens, UniProt P37231); format: functional;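 also: agonist potency for raising coactivator recruitment to the receptor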
# [21] = control 3'UTR Renilla luciferase suppression, dose response, counter-screen for Shn3 inhibitor project, cell-based, Clone20-Shn3RL, cherry-picked (AID 624133); format: functional
# Estrogen receptor [22] = biological target: T3, Estrogen receptor; experiment: potentiators of ERα–SRC-1 coactivator binding, dose response, biochemical, TR-FRET, ERα LBD (AID 737)
# [23] = Shn3 3'UTR reporter inhibitors, dose response, cell-based, Clone20 osteoblasts, firefly luciferase, cherry-picked (AID 624132); format: functional;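 also: firefly luciferase luminescence from reporter carrying the Shn3 3'UTR in osteoblasts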
# [24] = HepG2 cell cytotoxicity, dose response, cytotoxicity control for Shn3 inhibitor project, CellTiter-Glo, cherry-picked (AID 624134); format: functional, cell-based
# [25] = biological target: T6, Neuropeptide Y receptor type 2 (Homo sapiens, UniProt P49146); experiment: NPY-Y2 antagonist potency, selectivity check, dose response, counter-screen for NPY-Y1 antagonist project, cell-based (AID 1278); format: functional
# T6 sequence (P49146 whole entry): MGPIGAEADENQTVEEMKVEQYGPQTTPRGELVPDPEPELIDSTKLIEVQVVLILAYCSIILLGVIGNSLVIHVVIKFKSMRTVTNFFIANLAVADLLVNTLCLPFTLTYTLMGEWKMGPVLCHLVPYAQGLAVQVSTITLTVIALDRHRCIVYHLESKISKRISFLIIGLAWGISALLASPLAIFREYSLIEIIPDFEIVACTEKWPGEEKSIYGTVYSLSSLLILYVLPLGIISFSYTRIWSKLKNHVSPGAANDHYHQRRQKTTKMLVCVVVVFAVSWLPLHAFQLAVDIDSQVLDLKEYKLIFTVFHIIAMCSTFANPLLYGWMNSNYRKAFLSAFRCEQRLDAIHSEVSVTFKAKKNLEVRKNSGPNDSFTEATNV
# [26] = biological target: T7, Neuropeptide Y receptor type 1 (Homo sapiens, UniProt P25929); experiment: NPY-Y1 receptor antagonist potency, dose response, cell-based (AID 1277); format: functional
# T7 sequence (P25929 whole entry): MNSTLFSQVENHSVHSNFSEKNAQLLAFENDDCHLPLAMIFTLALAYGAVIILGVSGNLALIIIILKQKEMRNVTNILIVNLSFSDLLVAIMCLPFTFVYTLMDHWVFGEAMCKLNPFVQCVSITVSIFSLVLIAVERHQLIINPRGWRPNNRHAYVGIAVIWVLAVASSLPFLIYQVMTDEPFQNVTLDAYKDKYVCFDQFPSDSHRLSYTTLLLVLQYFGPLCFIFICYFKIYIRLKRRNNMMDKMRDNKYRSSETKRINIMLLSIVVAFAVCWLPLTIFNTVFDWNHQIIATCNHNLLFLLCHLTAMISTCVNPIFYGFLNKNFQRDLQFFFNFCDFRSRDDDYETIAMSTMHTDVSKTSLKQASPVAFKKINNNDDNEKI
# Bcl-2-like protein 10 = biological target: T8, Bcl-2-like protein 10 (Homo sapiens, UniProt Q9HD36); experiment: Biochemical TR3 FP assay of Bcl-B inhibitor potency, EC50 (AID 1243); format: functional
# T8 sequence (Q9HD36 whole entry): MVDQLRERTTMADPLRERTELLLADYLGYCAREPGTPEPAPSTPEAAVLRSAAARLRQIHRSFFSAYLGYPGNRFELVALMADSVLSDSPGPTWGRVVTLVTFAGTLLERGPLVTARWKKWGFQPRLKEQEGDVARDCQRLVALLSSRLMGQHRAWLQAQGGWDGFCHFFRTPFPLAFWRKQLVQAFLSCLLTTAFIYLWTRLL
# T2 sequence (P0DMV8 whole entry): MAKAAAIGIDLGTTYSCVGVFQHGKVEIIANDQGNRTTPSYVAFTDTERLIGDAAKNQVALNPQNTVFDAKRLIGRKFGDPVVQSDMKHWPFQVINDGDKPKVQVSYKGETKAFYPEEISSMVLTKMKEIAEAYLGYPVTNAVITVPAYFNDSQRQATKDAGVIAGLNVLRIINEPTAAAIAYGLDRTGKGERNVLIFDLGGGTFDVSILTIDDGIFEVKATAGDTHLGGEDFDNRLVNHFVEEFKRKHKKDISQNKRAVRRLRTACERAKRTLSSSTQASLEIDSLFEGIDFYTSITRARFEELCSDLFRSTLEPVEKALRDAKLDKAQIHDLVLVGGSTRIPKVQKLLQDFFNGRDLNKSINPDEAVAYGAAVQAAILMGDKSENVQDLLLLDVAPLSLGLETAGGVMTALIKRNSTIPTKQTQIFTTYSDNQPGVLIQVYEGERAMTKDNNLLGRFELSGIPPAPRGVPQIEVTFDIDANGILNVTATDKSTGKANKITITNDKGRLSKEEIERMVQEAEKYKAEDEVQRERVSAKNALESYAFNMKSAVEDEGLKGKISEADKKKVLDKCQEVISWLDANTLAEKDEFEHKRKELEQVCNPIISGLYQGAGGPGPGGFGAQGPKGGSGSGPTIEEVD
# T1 sequence (Q92731 whole entry): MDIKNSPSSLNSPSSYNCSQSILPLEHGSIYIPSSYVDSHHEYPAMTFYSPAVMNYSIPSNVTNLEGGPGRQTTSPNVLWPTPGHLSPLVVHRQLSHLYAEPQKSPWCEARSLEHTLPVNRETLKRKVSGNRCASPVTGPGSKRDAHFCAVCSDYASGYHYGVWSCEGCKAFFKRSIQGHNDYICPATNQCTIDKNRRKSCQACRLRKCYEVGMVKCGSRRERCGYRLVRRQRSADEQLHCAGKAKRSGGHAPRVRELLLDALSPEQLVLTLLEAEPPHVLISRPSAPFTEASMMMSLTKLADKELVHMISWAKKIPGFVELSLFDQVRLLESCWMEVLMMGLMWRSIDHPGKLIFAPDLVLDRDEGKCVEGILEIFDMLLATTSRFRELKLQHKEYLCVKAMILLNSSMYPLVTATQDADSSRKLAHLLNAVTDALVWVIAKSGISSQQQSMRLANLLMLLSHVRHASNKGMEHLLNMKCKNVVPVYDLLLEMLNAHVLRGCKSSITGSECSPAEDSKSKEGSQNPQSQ
# Chain of Cytochrome P450 2C19 (P33261 whole entry): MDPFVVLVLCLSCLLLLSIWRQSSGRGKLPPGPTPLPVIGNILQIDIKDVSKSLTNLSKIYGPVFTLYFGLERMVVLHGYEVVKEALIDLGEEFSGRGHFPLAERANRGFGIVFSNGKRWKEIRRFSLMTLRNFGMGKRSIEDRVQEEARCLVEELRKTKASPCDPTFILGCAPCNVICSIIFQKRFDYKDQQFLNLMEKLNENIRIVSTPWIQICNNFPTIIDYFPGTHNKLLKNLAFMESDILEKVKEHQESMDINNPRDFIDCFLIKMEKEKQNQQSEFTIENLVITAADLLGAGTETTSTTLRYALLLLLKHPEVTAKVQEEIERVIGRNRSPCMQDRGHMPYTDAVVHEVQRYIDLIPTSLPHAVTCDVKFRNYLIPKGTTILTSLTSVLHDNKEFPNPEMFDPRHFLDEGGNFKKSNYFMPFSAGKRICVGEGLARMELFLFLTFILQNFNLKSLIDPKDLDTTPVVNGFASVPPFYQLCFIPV
# Chain of Protein-tyrosine kinase 2-beta (Q14289 whole entry): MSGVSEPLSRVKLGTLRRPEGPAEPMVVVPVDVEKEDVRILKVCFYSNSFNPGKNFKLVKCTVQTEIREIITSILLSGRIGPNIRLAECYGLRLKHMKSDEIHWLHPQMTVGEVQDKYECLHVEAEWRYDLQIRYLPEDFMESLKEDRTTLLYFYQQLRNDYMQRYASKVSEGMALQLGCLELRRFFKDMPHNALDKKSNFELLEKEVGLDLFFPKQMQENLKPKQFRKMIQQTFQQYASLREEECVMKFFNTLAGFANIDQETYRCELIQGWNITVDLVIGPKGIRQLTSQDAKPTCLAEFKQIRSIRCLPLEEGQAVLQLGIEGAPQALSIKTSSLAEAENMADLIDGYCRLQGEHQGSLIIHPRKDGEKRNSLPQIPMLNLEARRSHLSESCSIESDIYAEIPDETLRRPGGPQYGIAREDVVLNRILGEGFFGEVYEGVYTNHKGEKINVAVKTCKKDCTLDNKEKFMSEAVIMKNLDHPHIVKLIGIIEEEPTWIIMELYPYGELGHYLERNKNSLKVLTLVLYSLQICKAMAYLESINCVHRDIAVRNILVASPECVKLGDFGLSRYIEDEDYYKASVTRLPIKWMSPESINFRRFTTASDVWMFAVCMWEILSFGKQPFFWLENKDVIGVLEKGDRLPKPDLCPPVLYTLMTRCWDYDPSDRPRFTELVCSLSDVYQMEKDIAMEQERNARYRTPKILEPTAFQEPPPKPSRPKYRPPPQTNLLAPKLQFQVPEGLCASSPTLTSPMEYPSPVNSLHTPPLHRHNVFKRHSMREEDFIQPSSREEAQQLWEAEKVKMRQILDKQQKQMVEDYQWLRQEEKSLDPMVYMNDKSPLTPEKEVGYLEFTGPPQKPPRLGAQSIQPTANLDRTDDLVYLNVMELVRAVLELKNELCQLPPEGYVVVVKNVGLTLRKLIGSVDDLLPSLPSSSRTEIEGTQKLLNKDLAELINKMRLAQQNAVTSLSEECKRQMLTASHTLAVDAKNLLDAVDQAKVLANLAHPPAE
# Chain of Cytochrome P450 3A4 (P08684 whole entry): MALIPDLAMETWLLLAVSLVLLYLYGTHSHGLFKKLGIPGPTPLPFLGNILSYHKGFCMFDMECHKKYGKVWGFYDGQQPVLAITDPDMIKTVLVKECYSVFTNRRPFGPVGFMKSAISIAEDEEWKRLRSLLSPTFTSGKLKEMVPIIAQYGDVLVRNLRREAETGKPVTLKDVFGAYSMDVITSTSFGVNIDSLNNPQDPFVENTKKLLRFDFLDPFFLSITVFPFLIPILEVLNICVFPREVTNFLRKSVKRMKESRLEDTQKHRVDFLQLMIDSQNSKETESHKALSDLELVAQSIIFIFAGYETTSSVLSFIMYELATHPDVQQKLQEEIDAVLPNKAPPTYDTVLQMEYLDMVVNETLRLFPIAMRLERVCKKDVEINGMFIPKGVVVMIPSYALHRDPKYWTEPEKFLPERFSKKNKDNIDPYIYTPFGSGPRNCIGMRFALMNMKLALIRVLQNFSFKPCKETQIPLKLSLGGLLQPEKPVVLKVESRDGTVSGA
# Chain of Sphingosine 1-phosphate receptor 1 (P21453 whole entry): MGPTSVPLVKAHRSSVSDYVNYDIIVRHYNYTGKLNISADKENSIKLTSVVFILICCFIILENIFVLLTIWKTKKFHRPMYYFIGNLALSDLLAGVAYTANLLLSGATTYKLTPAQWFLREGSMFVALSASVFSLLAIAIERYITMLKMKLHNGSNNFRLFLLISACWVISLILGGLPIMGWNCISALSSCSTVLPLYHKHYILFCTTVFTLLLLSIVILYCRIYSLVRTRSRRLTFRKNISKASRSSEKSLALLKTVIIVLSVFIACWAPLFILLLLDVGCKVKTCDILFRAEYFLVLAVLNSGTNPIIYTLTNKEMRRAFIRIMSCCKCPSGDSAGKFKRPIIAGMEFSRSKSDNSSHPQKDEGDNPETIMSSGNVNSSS
# Chain of Sphingosine 1-phosphate receptor 4 (O95977 whole entry): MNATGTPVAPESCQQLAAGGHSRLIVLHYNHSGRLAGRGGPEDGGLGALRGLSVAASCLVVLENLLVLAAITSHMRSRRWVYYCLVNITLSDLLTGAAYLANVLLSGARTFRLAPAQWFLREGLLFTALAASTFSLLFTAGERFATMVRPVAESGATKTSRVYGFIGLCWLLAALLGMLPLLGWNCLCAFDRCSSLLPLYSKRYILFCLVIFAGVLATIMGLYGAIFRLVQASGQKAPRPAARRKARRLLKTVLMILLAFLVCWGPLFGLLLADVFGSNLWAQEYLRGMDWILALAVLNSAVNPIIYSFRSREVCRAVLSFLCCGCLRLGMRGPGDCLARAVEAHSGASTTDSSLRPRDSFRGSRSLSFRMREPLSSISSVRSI
# Chain of Cytochrome P450 2C9 (P11712 whole entry): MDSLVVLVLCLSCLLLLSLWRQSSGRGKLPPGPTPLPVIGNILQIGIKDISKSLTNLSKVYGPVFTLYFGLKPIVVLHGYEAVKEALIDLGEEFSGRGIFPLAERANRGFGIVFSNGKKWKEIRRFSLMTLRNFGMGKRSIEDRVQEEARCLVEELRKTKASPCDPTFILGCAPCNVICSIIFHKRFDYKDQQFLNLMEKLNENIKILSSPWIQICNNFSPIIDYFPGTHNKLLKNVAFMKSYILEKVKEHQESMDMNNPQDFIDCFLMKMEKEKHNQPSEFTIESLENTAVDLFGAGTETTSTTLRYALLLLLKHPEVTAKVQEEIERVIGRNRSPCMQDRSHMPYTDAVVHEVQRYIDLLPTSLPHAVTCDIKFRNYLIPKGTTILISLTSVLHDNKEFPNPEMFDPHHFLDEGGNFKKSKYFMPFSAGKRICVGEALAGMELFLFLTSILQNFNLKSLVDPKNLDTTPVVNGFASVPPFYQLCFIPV
compound,measurement,setting,value
O=C1c2cccc3c([N+](=O)[O-])ccc(c23)C(=O)N1CC1CCCO1 (configuration not stated),IC50,[1],1.3 µM (active)
same,IC50,[2],3.72 µM (active)
Cc1ccc(C(=O)ONc2ccc(N=NC(=O)c3ccccc3O)cc2)cc1,IC50,Estrogen receptor beta [3],< 0.023 µM (not active)
same,IC50,Estrogen receptor beta [4],8.2 µM (active)
same,IC50,[5],25.2 µM (active)
same,IC50,[6],12.4 µM (active)
same,AC50,[7],1.51 µM (active)
same,IC50,Estrogen receptor [8],8.44 µM (active)
CSc1nc2ccc3nc(NC(=O)c4cccs4)sc3c2s1,IC50,[9],> 100 µM (active)
same,AC50,Cytochrome P450 3A4,20 µM (inconclusive)
same,IC50,CHO-K1,> 66.2 µM (inactive)
same,EC50,[10],6.88 µM (active)
same,EC50,H4,> 120 µM (not active)
same,EC50,[11],35.9 µM (not active)
same,AC50,Cytochrome P450 2C19,2.82 µM (inconclusive)
same,IC50,Orexin receptor type 2 [12],> 88.8 µM (inactive)
same,EC50,[13],28 µM (active)
same,EC50,[14],33.2 µM (not active)
same,IC50,Orexin receptor type 2 [15],> 50 µM (inactive)
same,IC50,[16],> 49.7 µM (inactive)
same,IC50,[17],0.846 µM (active)
same,IC50,[18],6.5 µM (active)
same,IC50,[19],1.23 µM (active)
same,AC50,Cytochrome P450 2C9,0.355 µM (inconclusive)
same,EC50,[20],25.5 µM (not active)
CCOC(=O)N1CCN(S(=O)(=O)c2ccc(C(=O)Nc3nc4ccc(F)cc4s3)cc2)CC1,AC50,[21],3.38 µM (active)
same,EC50,Estrogen receptor [22],11.6 µM (active)
same,AC50,[23],4.79 µM (active)
same,AC50,[24],> 70 µM (inactive)
Cc1cccc(OCCNC(=O)c2ccc(Oc3ccc(C(F)(F)F)cc3[N+](=O)[O-])cc2)c1,IC50,[25],> 35 µM (not active)
same,IC50,[26],> 35 µM (not active)
COc1ccccc1NC(=O)C1=C(C)NC(SCC(=O)c2ccc(Br)cc2)=C(C#N)C1c1ccco1 (configuration not stated),EC50,Bcl-2-like protein 10,6.24 µM (active)
